{
  "source": "paper PMC5999578",
  "about": "(Journal of the American Chemical Society, 2018)",
  "biological_target": "VioC (Streptomyces vinaceus, UniProt Q6WZB0)",
  "sequence (Q6WZB0 whole entry)": "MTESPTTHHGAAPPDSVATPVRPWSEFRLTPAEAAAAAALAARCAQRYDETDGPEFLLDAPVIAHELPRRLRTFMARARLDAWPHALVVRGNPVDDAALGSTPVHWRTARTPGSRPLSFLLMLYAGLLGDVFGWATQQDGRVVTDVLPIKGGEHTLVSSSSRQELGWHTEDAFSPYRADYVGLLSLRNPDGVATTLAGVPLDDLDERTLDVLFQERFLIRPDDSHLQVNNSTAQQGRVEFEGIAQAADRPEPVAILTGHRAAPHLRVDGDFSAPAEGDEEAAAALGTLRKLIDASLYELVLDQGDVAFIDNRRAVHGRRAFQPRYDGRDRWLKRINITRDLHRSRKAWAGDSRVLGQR",
  "assay": "X-ray crystal structure, […] A",
  "assay_type": "binding",
  "settings": "vanadyl (ferryl mimic) in place of Fe, L-hArg",
  "data": [
    {"smiles": "O=C(O)CCC(=O)O", "note": "[succinate]", "values": [
      {"measurement": "X-ray crystal structure, 1.70 A", "value": "crystals of the VioC•VO•succinate•L-hArg complex"}
    ]}
  ]
}
